Results as given in US10766888B1, “HMOX1 inducers” (Mitobridge Inc., priority 2019, dated 2020).
pEC50: −log10 of the molar value.

Tested on: Human Heme Oxygenase-1 (HMOX-1)
Assay: ELISA assay to measure human heme oxygenase-1 (HMOX-1) in HepG2 lysate
Type: cell-based
Conditions: fold change of human HMOX1 protein level relative to DMSO control, HepG2
Description: Example 143. ELISA Assay to Measure Human Heme Oxygenase-1 (HMOX-1) in HepG2 lysate
Reagents and Technical Notes:
ELISA capture antibody, standard HO-1, detection antibody and streptavidin HRP were supplied in the DuoSet IC Human total HO-1 ELISA from R&D systems (DYC3776-2). The substrate cocktail was KPL LumiGLO reserve Chemiluminescent Substrate (54-71-00). PBS was Corning Cellgro Cell Culture (21-040-CV). 10×PBS+0.05% tween20 (PBST) was from KPL.
All incubations of the plate were at room temperature (20° C.) in a closed drawer.
The ELISA plate was processed manually. All loadings were with a multichannel pipet. Plates were emptied by shaking into the sink and tapping onto paper towels to remove any remaining reagent. Plate washing was accomplished by loading all wells with PBS+0.05% tween20 (PBST) using a squirt bottle, shaking the PBST out and tapping the plate onto paper towels.
Preparation of the ELISA Plate:
• 1. anti-HO-1 capture antibody was 1440 μg/ml after reconstitution in PBS. This antibody was diluted to 8 μg/ml in PBS and 50 μl per well was added to a 384 well greiner “lumitrac 200” plate. Incubated overnight. • 2. The plate was emptied and 100 μl PBS+1% BSA added to all wells. Incubated 90 minutes at room temperature. Preparation of HepG2 Lysate: • 1. Cells were cultured in a 96-well tissue culture plate washed with PBS and then the plate frozen at −70° C. overnight. Plates were allowed to warm to ice temperature in an ice bucket. 20 μl of PBS, 0.5% Triton X100, 1 mM EDTA with 1×HALT™ protease inhibitors was added to each well and the plates incubated on ice for 1 hour. • 2. The lysates were frozen at −20° C. overnight. Measurement of HMOX1 (“HO-1”) • 1. In a polypropylene 384 well plate, human HO-1 (after reconstitution in PBS+0.5% Triton+1 mM EDTA) was serially diluted from 20 ng/ml 2-fold in PBS+0.5% triton-X100, 1 mM EDTA to make a 12-point standard curve including a zero point. • 2. In a polypropylene 96 well plate, HepG2 lysate was diluted 1 to 20 in Diluent #4 from DUOSET kit in which the assay standard is also diluted. • 3. The PBS+1% BSA was emptied from the ELISA plate and 30 μl of all samples and standards were added (duplicates recommended). The plate was incubated 90 minutes. • 4. Emptied plate and washed 4 times with PBST. • 5. Diluted HO-1 detection antibody to 200 ng/ml in PBS+1% BSA and added 30 μl to all wells. Incubated 90 minutes. • 6. Emptied plate and washed 4 times with PBST. • 7. Added 30 μl streptavidin HRP at 1/200 in PBS+1% BSA (stock streptavidin concentration not specified) to all wells. Incubated 30 minutes. • 8. Emptied plate and washed 4 times with PBST. • 9. Diluted Lumiglo reserve reagent two parts buffer to one part lumiglo substrate. Added 30 μl to all wells. Incubated 5 minutes. • 10. Measured chemiluminescence on spectramax M5 using 150 ms integration.
Table 1 below lists EC50 and fold changes of human HMOX1 protein levels relative to DMSO control upon treatment with representative compounds.

| Structure (SMILES) | Maximum Fold induction [fold] |
| --- | --- |
| COCCOc1ccc2nc(Nc3nc4cc(C(=O)O)ccc4n3C)oc2c1 [Example 55, 2-((6-(2-methoxyethoxy)benzo[d]oxazol-2-yl)amino)-1-methyl-1H-benzo[d]imidazole-5-carboxylic acid] | 15 |

Same assay, conditions: human HMOX1 protein level in HepG2 lysate; * = average of 2 or more EC50 determinations; NA = Not Active; read-out: EC50

| Structure (SMILES) | pEC50 |
| --- | --- |
| COCCNC(=O)c1ccc2c(c1)nc(Nc1nc3ccc(OC(F)(F)F)cc3o1)n2CCOC [Example 78, N,1-bis(2-methoxyethyl)-2-((6-(trifluoromethoxy)benzo[d]oxazol-2-yl)amino)-1H-benzo[d]imidazole-5-carboxamide] | 5.66 |
| Cn1c(Nc2nc3cc(F)c(C(F)(F)F)cc3o2)nc2cc(C(=O)O)ccc21 [Example 107, 2-((5-fluoro-6-(trifluoromethyl)benzo[d]oxazol-2-yl)amino)-1-methyl-1H-benzo[d]imidazole-5-carboxylic acid] | 5.35 |
| Cn1c(Nc2nc3ccc(F)cc3o2)nc2cc(C(=O)O)ccc21 [Example 68, 2-((6-fluorobenzo[d]oxazol-2-yl)amino)-1-methyl-1H-benzo[d]imidazole-5-carboxylic acid] | 5.70 |
| COCCNC(=O)c1ccc2c(c1)nc(Nc1nc3ccccc3o1)n2C [Example 1i, 2-(benzo[d]oxazol-2-ylamino)-N-(2-methoxyethyl)-1-methyl-1H-benzo[d]imidazole-5-carboxamide] | 6.10 |
| O=C(O)c1ccc2c(c1)nc(Nc1nc3ccc(OC(F)(F)F)cc3o1)n2CC1CCOC1 (stereo not shown) [Example 87, 1-((tetrahydrofuran-3-yl)methyl)-2-((6-(trifluoromethoxy)-benzo[d]oxazol-2-yl)amino)-1H-benzo[d]imidazole-5-carboxylic acid] | 5.17 |
| Cn1c(Nc2nc3ccc(Cl)cc3o2)nc2cc(C(=O)O)ccc21 [Example 96, 2-((6-chlorobenzo[d]oxazol-2-yl)amino)-1-methyl-1H-benzo[d]imidazole-5-carboxylic acid] | 5.55 |
| Cn1c(Nc2nc3ccc(OC(F)(F)F)cc3o2)nc2cc(C(=O)O)c(F)cc21 [Example 70, 6-fluoro-1-methyl-2-((6-(trifluoromethoxy)benzo[d]oxazol-2-yl)amino)-1H-benzo[d]imidazole-5-carboxylic acid] | 5.49 |
| Cn1c(Nc2nc3cc(Cl)ccc3[nH]2)nc2cc(C(=O)O)ccc21 [Example 82, 2-((5-chloro-1H-benzo[d]imidazol-2-yl)amino)-1-methyl-1H-benzo[d]imidazole-5-carboxylic acid] | 5.62 |
| COCCNC(=O)c1ccc2c(c1)nc(Nc1nc3ccccc3[nH]1)n2C [Example 12, 2-((1H-benzo[d]imidazol-2-yl)amino)-N-(2-methoxyethyl)-1-methyl-1H-benzo[d]imidazole-5-carboxamide] | 5.35 |
| COCCNC(=O)c1ccc2c(c1)nc(Nc1nc3ccc(OC(F)(F)F)cc3o1)n2C1CCOCC1 [Example 80, N-(2-methoxyethyl)-1-(tetrahydro-2H-pyran-4-yl)-2-((6-(trifluoromethoxy)benzo[d]oxazol-2-yl)amino)-1H-benzo[d]imidazole-5-carboxamide] | 5.72 |
| CN(C)CCn1c(Nc2nc3ccc(OC(F)(F)F)cc3o2)nc2cc(C(=O)O)ccc21 [Example 74, 1-(2-(dimethylamino)ethyl)-2-((6-(trifluoromethoxy)benzo[d]oxazol-2-yl)amino)-1H-benzo[d]imidazole-5-carboxylic acid] | 5.44 |
| COCCn1c(Nc2nc3ccc(OC(F)(F)F)cc3o2)nc2cc(C(=O)O)ccc21 [Example 77, 1-(2-methoxyethyl)-2-((6-(trifluoromethoxy)benzo[d]oxazol-2-yl)amino)-1H-benzo[d]imidazole-5-carboxylic acid] | 5.39 |
| CN1CCC(n2c(Nc3nc4ccc(OC(F)(F)F)cc4s3)nc3cc(C(=O)O)ccc32)C1 (stereo not shown) [Example 4d, 1-(1-methylpyrrolidin-3-yl)-2-((6-(trifluoromethoxy)benzo[d]thiazol-2-yl)amino)-1H-benzo[d]imidazole-5-carboxylic acid] | 5.33 |
| Cn1c(Nc2nc3ccc(OCC(F)(F)F)cc3o2)nc2cc(C(=O)O)ccc21 [Example 98, 1-methyl-2-((6-(2,2,2-trifluoroethoxy)benzo[d]oxazol-2-yl)amino)-1H-benzo[d]imidazole-5-carboxylic acid] | 5.39 |
| Cn1c(Nc2nc3ccc(C4CC4)cc3o2)nc2cc(C(=O)O)ccc21 [Example 115, 2-((6-cyclopropylbenzo[d]oxazol-2-yl)amino)-1-methyl-1H-benzo[d]imidazole-5-carboxylic acid] | 5.21 |
| Cn1c(Nc2nc3ccccc3o2)nc2cc(C(=O)O)ccc21 [Example 1h, 2-(benzo[d]oxazol-2-ylamino)-1-methyl-1H-benzo[d]imidazole-5-carboxylic acid] | 5.36 |
| COCCOc1ccc2nc(Nc3nc4cc(C(=O)O)ccc4n3C)oc2c1 [Example 55, 2-((6-(2-methoxyethoxy)benzo[d]oxazol-2-yl)amino)-1-methyl-1H-benzo[d]imidazole-5-carboxylic acid] | 5.35 |
| CN(C)CCNC(=O)c1ccc2c(c1)nc(Nc1nc3ccccc3o1)n2C [Example 21, 2-(benzo[d]oxazol-2-ylamino)-N-(2-(dimethylamino)ethyl)-1-methyl-1H-benzo[d]imidazole-5-carboxamide] | 5.96 |
| COCCNC(=O)c1ccc2c(c1)nc(Nc1nc3ccc(OC(F)(F)F)cc3s1)n2C1CCOCC1 [Example 2e, N-(2-methoxyethyl)-1-(tetrahydro-2H-pyran-4-yl)-2-((6-(trifluoromethoxy)benzo[d]thiazol-2-yl)amino)-1H-benzo[d]imidazole-5-carboxamide] | 5.42 |
| O=C(NCCO)c1ccc2c(c1)nc(Nc1nc3ccc(OC(F)(F)F)cc3o1)n2CC1(O)COC1 [Example 95, N-(2-hydroxyethyl)-1-((3-hydroxyoxetan-3-yl)methyl)-2-((6-(trifluoromethoxy)benzo[d]oxazol-2-yl)amino)-1H-benzo[d]imidazole-5-carboxamide] | 5.80 |
| Cn1c(Nc2nc3cc(C(=O)NCCOCCO)ccc3o2)nc2ccccc21 [Example 118, N-(2-(2-hydroxyethoxy)ethyl)-2-((1-methyl-1H-benzo[d]imidazol-2-yl)amino)benzo[d]oxazole-5-carboxamide] | 5.10 |
| COCCNC(=O)c1ccc2c(c1)nc(Nc1nc3ccc(OC(F)(F)F)cc3o1)n2CC1CCOC1 (stereo not shown) [Example 88, N-(2-methoxyethyl)-1-((tetrahydrofuran-3-yl)methyl)-2-((6-(trifluoromethoxy)benzo[d]oxazol-2-yl)amino)-1H-benzo[d]imidazole-5-carboxamide] | 5.82 |
| COCCNC(=O)c1ccc2c(c1)nc(Nc1nc3cc(OC(F)(F)F)ccc3[nH]1)n2C1CCOCC1 [Example 81, N-(2-methoxyethyl)-1-(tetrahydro-2H-pyran-4-yl)-2-((5-(trifluoromethoxy)-1H-benzo[d]imidazol-2-yl)amino)-1H-benzo[d]imidazole-5-carboxamide] | 5.64 |
| COCCNC(=O)c1ccc2c(c1)nc(Nc1nc3cc(OC(F)(F)F)ccc3[nH]1)n2CCOC [Example 76, N,1-bis(2-methoxyethyl)-2-((5-(trifluoromethoxy)-1H-benzo[d]imidazol-2-yl)amino)-1H-benzo[d]imidazole-5-carboxamide] | 5.57 |
| Cn1c(Nc2nc3ccc(OC(F)(F)F)cc3o2)nc2cc(C(=O)NCCS(C)(=O)=O)ccc21 [Example 54, 1-methyl-N-(2-(methylsulfonyl)ethyl)-2-((6-(trifluoromethoxy)benzo[d]oxazol-2-yl)amino)-1H-benzo[d]imidazole-5-carboxamide] | 5.49 |
| CCn1c(Nc2nc3ccc(OC(F)(F)F)cc3o2)nc2cc(C(=O)NCCOC)ccc21 [Example 85, 1-ethyl-N-(2-methoxyethyl)-2-((6-(trifluoromethoxy)benzo[d]oxazol-2-yl)amino)-1H-benzo[d]imidazole-5-carboxamide] | 5.89 |
| COCCNC(=O)c1ccc2c(c1)nc(Nc1nc3c(s1)COCC3)n2C [Example 11, 2-((6,7-dihydro-4H-pyrano[4,3-d]thiazol-2-yl)amino)-N-(2-methoxyethyl)-1-methyl-1H-benzo[d]imidazole-5-carboxamide] | 5.18 |
